Laboratory results published in US9328093B2, “Selective inhibitors of ubiquitin specific protease 7, the pharmaceutical compositions thereof and their therapeutic applications” (HYBRIGENICS SA, priority 2010, dated 2016).

Target: T1, UCH-L1 (Homo sapiens, UniProt P09936)
T1 sequence (P09936 1-223): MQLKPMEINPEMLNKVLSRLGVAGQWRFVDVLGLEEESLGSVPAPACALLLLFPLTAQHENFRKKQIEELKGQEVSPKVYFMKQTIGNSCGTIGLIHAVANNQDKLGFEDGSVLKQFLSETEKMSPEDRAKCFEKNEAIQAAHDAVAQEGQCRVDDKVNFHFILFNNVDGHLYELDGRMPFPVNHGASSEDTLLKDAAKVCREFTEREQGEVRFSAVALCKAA
Assay: UCH-L1 activity assay (Ub-AMC substrate)
Type: biochemical
Settings: Ub-AMC 300 nM, UCH-L1 2.5 nM
Method: UCH-L1 was diluted in USP buffer (50 mM Tris HCl; 0.5 mM EDTA; 5 mM DTT; 0.01% Triton X-100; Bovine Serum Albumin 0.05 mg·ml^−1 pH7.6). Compounds stocks (100 mM) were stored at −20° C. in DMSO. Compounds were tested at different concentrations: from 200 μM to 91 nM.
Reactions were performed as duplicates in Black 384 well plates (small volume microplates; Greiner; 10 μl final reaction volume). The substrate concentration for UCH-L1 was 300 nM Ub-AMC (Boston Biochem). The concentration of the enzyme (UCH-L1) in specificity assays was 2.5 nM. The concentrations were determined in order to perform specificity assays under initial velocities at fixed substrate concentration. Compounds were pre-incubated with enzymes for 30 minutes at 25° C. Reactions were initiated by addition of substrate to the plates containing the enzymes (+/− compounds) diluted in assay buffer. Reactions were incubated for 60 minutes at 37° C. Reactions were stopped by adding acetic acid (100 mM final). Readings were performed on a Pherastar Fluorescent Reader (BMG). λ Emission 380 nm; λ Excitation=460 nm. Data (mean values +/− standard deviation) were analyzed as % of control (no compound) and plotted as percentage versus the Log of the compound concentration using GraphPad (Prism). Data were fitted to a sigmoidal model (variable slope).

| IC50 [µM] | SMILES |
| --- | --- |
| > 200 | O=C(NCc1cccc(CN2CCCC2)c1)c1ccc2c(Cl)c3c(nc2c1)CCCC3 [Example 18, 9-chloro-N-(3-(pyrrolidin-1-ylmethyl)benzyl)-5,6,7,8-tetrahydroacridine-3-carboxamide] |
| > 200 | COc1ccc(CN2CCC(CNC(=O)c3ccc4c(Cl)c5c(nc4c3)CCCC5)CC2)cc1 [Example 22, 9-chloro-N-((1-(4-methoxybenzyl)piperidin-4-yl)methyl)-5,6,7,8-tetrahydroacridine-3-carboxamide] |
| > 200 | CN1CCCC1CCNC(=O)c1ccc2c(Cl)c3c(nc2c1)CCCC3 (stereo not drawn) [Example 17, 9-chloro-N-(2-(1-methylpyrrolidin-2-yl)ethyl)-5,6,7,8-tetrahydroacridino-3-carboxamide] |
| > 200 | O=C(NCC(CN1CCCC1)C(O)c1ccccc1)c1ccc2c(Cl)c3c(nc2c1)CCCC3 (stereo not drawn) [Example 25, 9-chloro-N-(3-hydroxy-3-phenyl-2-pyrrolidin-1-ylmethylpropyl)-5,6,7,8-tetrahydroacridine-3-carboxamide] |
| > 200 | O=C(NCC1CCNCC1)c1ccc2c(Cl)c3c(nc2c1)CCCC3 [Example 24, 9-chloro-N-((piperidin-4-yl)methyl)-5,6,7,8-tetrahydroacridine-3-carboxamide] |
| > 200 | CC1CCCCN1CCCNC(=O)c1ccc2c(Cl)c3c(nc2c1)CCCC3 (stereo not drawn) [Example 20, 9-chloro-N-(3-(2-methylpiperidin-1-yl)propyl)-516,7,8-tetrahydroacridine-3-carboxamide] |
| > 200 | CN(C)c1ccc(CN2CCC(CNC(=O)c3ccc4c(Cl)c5c(nc4c3)CCCC5)CC2)cc1 [Example 23] |
| > 200 | O=C(NCc1ccc(CN2CCCC2)cc1)c1ccc2c(Cl)c3c(nc2c1)CCCC3 [Example 21, 9-chloro-N-(4-(pyrrolidin-1-ylmethyl)benzyl)-5,6,7,8-tetrahydroacridine-3-carboxamide] |
| > 200 | O=C(Nc1cccc(CN2CCCC2)c1)c1ccc2c(Cl)c3c(nc2c1)CCCC3 [Example 19, 9-chloro-N-(3-(pyrrolidin-1-ylmethyl)phenyl)-5.6,7,8-tetrahydroacridine-3-carboxamide] |
